# Test system: proteolytic enzymes in combined urine samples of patients (urothelial epithelial neoplasms)
# Test: Effect of protease inhibitors on hydrolysis of ABZ-Leu-Glu-Pro-Val-ANB-NH2 in combined urine samples of patients
# Format: biochemical, human
# Conditions: inhibitor concentrations as in Table 1; fig. 3
# Experimental: Proteolytic activity is dependent on the presence of specific compounds called inhibitors (proteolytic enzymes). Their incubation with a given biological material allows us to pre-determine the class of enzymes present in the tested samples. For this purpose, we have added effective inhibitory concentrations of certain classes of proteolytic enzymes to the combined urine samples of the ill persons - patients (urothelial epithelial neoplasms, in particular tumor).
substance,measurement,value
AHX-VYDnV^P(C4H2Cl)2,inhibition of hydrolysis of ABZ-Leu-Glu-Pro-Val-ANB-NH2,complete inhibition of hydrolysis
